Data from patent EP3398601A1, “NICOTINAMIDE FOR TREATING DYSLIPIDEMIA” (priority 2017, dated 2018).
Entries after “also recorded” stand apart in the source; their conditions may differ.

How the values were obtained:
NaPi2b [1] = assay: Renal NaPi2b protein expression, immune fluorescence, in 5/6 nephrectomized DBA/2 mice; conditions: 5/6 nephrectomized DBA/2 mice (CKD); Fig. 4
[2] = S-phosphate and fractional phosphate elimination in DBA/2 mice; assay type: in vivo; conditions: for fractional phosphate elimination (in words): DBA/2 mice
Description: (§1) For this purpose, 5/6 nephrectomized DBA/2 mice were used as model for vascular calcification. The mice were treated with nicotinamide (NA) in a concentration of 600 µg/mL in the drinking water.

FGF23 = FGF23 in DBA/2 mice; assay type: in vivo
Description: as §1

NaPi2b [3] = assay: Intestinal (ileum) NaPi2b expression, immune fluorescence and RNA, in 5/6 nephrectomized DBA/2 mice; assay type: in vivo, DBA/2 mouse
Description: Further, the effect of nicotinamide treatment on intestinal NaPi2b protein expression in a mouse model (DBA/2 mouse) was investigated.
as §1
Bars between columns indicate significant between groups differences (ANOVA with Tukey Post Test, p<0.05).

NaPi2b [4] = conditions: intraperitoneal administration; cited from earlier work
GPR109A receptor = GPR109A receptor (Homo sapiens, UniProt Q8TDS4); conditions: cited from earlier work
Sequence of GPR109A receptor (Q8TDS4 whole entry): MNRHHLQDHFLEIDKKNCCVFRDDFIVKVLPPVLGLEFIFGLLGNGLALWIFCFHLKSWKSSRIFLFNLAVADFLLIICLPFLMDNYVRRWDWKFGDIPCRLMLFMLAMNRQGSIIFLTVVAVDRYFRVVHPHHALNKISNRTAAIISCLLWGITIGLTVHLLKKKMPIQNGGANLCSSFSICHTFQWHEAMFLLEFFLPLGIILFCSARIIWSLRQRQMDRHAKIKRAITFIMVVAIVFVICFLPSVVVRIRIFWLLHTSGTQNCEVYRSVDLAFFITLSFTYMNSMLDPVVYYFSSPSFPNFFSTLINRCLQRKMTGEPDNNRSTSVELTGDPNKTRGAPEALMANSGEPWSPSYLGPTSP

Lp(a) [5] = assay: Lp(a) plasma levels (Apo(a) ELISA) in transgenic Apo(a) mice given the substance in chow, cross-over design; conditions: for reduction of Lp(a): 1% orally as food supplement, compared to baseline levels
Description: In the transgenic Apo(a) mice (tg-Apo(a)) Apo(a) is expressed mainly in female mice.
Levels of Apo(a) were determined by means of ELISA and were expressed as Lp(a) in mg/dl as each molecule Apo(a) binds one molecule of LDL to form Lp(a).

[6] = given in combination with the phosphate binder sevelamer; cited from earlier work
[7] = intraperitoneal administration; cited from earlier work
Apo(a) = conditions: oral treatment with 1% nicotinic acid in the chow; female tg-Apo(a) mice; cited from earlier work
Lp(a) [8] = conditions: literature values (Carlson, 1989; Kotani, 2017); cited from earlier work

Structure (SMILES) | renal NaPi2b protein expression (in words) (NaPi2b [1]) | fractional phosphate elimination (in words) [2] | FGF23 (in words) (FGF23) | intestinal NaPi2b protein / cotransporter content of the small intestine (in words) (NaPi2b [3]; 5/6 nephrectomized DBA/2 mice, NA 600 µg/mL in the drinking water, Fig. 3) | intestinal NaPi2b protein / cotransporter content of the small intestine (in words) (NaPi2b [3]; 5/6 nephrectomized DBA/2 mice, NA 600 µg/mL in the drinking water, Fig. 3, listed as Mg) | intestinal NaPi2b protein / cotransporter content of the small intestine (in words) (NaPi2b [3]; 5/6 nephrectomized DBA/2 mice, NA 600 µg/mL in the drinking water, Fig. 3, listed as magnesium carbonate (Mg)) | increase of cotransporter expression (intestinal NaPi2b) (NaPi2b [3]; 5/6 nephrectomized DBA/2 mice, treatment for 7 weeks, Fig. 3) | expression of NaPi2b (in words) (NaPi2b [4]) | S-phosphate (in words) ([2]; effect only in healthy DBA/2 mice with high phosphate diet (phosphorus content 1.03 % (w/w)), NA 600 µg/mL in the drinking water) | binding to GPR109A receptor (in words) (GPR109A receptor) | reduction of Lp(a) (Lp(a) [5]; after two weeks of treatment) [%] | reduction of Lp(a) (Lp(a) [5]; after week 1) [%] | Lp(a) plasma levels lower compared to nicotinic acid (Lp(a) [5]; after 2 weeks of treatment, Fig. 1 legend) | NaPi2b-RNA of the small intestine (in words) (NaPi2b [3]; DBA/2 mice, NA 600 µg/mL in the drinking water) | treatment of hyperphosphatemia (in words) [6] | gastrointestinal absorption of phosphate (in words) [7] | reduction in plasma Apo(a) protein (Apo(a)) [%] | reduces Lp(a) (Lp(a) [8])
O=C(O)O [magnesium carbonate] | no significant difference compared to baseline; also recorded: no significant effects | reduction | reduction | strongly enhances | notable increase | strong enhancement | 10 -fold |  |  |  |  |  |  |  |  |  |  | 
NC(=O)c1cccnc1 [nicotinamide] |  | reduction | reduction |  |  |  |  | blocks | decrease | does not bind or otherwise affect | 77 | 67 | more than 50% | did not show any influence | ineffective | inhibits |  | 
O=C(O)c1cccnc1 [nicotinic acid] |  |  |  |  |  |  |  |  |  |  | 50 | 37 |  |  |  |  | 43 | up to 35%
